“And” between values parts separate entries of the source, which are not always exact repeats. Equal entries are not always repeated. Toxic doses and inconclusive results are not listed. Cut-off read from the data, not from the text of the source: active = T/C of 150% or more; inactive = T/C below 125%.
Tested on: L1210 leukemia ip in BDF1 mice, survival T/C
Assay: NCI In Vivo Anticancer Drug Screen. Data for tumor model L1210 Leukemia (intraperitoneal) in B6D2F1 (BDF1) mice
Settings: endpoint: mean survival time, higher = longer survival
Summary of the method: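 Tumor was transplanted into mice, which were then dosed with test compound or vehicle alone. Survival was recorded for each group, and the treated figure was expressed relative to the control figure.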

[1] = dose: 100.0 mg/kg/injection, schedule: Q04DX003 (ip), vehicle: saline with Tween-80
[2] = dose: 200.0 mg/kg/injection, schedule: Q04DX003 (ip), vehicle: saline with Tween-80
[3] = dose: 100.0 mg/kg/injection, schedule: Q04DX003 (ip), vehicle: Klucel (hydroxypropylcellulose) (HPC)
[4] = dose: 200.0 mg/kg/injection, schedule: Q04DX003 (ip), vehicle: Klucel (hydroxypropylcellulose) (HPC)
[5] = dose: 50.0 mg/kg/injection, schedule: Q01DX001 (ip), vehicle: saline
[6] = dose: 100.0 mg/kg/injection, schedule: Q01DX001 (ip), vehicle: saline
[7] = dose: 75.0 mg/kg/injection, schedule: Q01DX001 (ip), vehicle: saline
[8] = dose: 150.0 mg/kg/injection, schedule: Q01DX001 (ip), vehicle: saline
[9] = dose: 300.0 mg/kg/injection, schedule: Q01DX001 (ip), vehicle: saline
[10] = dose: 100.0 mg/kg/injection, schedule: Q04DX002 (ip), vehicle: saline with Tween-80
[11] = dose: 200.0 mg/kg/injection, schedule: Q04DX002 (ip), vehicle: saline with Tween-80
[12] = dose: 400.0 mg/kg/injection, schedule: Q04DX002 (ip), vehicle: saline with Tween-80
[13] = dose: 100.0 mg/kg/injection, schedule: Q01DX001 (ip), vehicle: carboxymethylcellulose (CMC)
[14] = dose: 200.0 mg/kg/injection, schedule: Q01DX001 (ip), vehicle: carboxymethylcellulose (CMC)
[15] = dose: 400.0 mg/kg/injection, schedule: Q01DX001 (ip), vehicle: carboxymethylcellulose (CMC)
[16] = dose: 100.0 mg/kg/injection, schedule: Q01DX009 (ip), vehicle: Klucel (hydroxypropylcellulose) (HPC)
[17] = dose: 200.0 mg/kg/injection, schedule: Q01DX009 (ip), vehicle: Klucel (hydroxypropylcellulose) (HPC)
[18] = dose: 400.0 mg/kg/injection, schedule: Q01DX009 (ip), vehicle: Klucel (hydroxypropylcellulose) (HPC)
[19] = dose: 400.0 mg/kg/injection, schedule: Q04DX003 (ip), vehicle: Klucel (hydroxypropylcellulose) (HPC)
[20] = dose: 50.0 mg/kg/injection, schedule: Q01DX009 (ip), vehicle: saline with Tween-80

Measured: T/C

O=[N+]([O-])c1ccc(N/N=C(/CCCCl)c2ccccc2)c([N+](=O)[O-])c1
inactive: [1] 96 % of control | [2] 95 % of control | dose: 400.0 mg/kg/injection, schedule: Q04DX003 (ip), vehicle: saline with Tween-80 91 % of control

CC1(CO)C2CCC(O)C1C2 (stereo not given)
inactive: dose: 75.0 mg/kg/injection, schedule: Q01DX009 (ip), vehicle: saline 103 % of control | dose: 75.0 mg/kg/injection, schedule: Q04DX003 (ip), vehicle: saline 94 % of control | dose: 150.0 mg/kg/injection, schedule: Q01DX009 (ip), vehicle: saline 97 % of control | dose: 150.0 mg/kg/injection, schedule: Q04DX003 (ip), vehicle: saline 95 % of control | dose: 300.0 mg/kg/injection, schedule: Q01DX009 (ip), vehicle: saline 100 % of control | dose: 300.0 mg/kg/injection, schedule: Q04DX003 (ip), vehicle: saline 102 % of control

CN(C)C(=S)N1CC2C3CCC(O3)C2C1 (stereo not given)
inactive: [3] 95 % of control | [4] 104 % of control

OCC[N-]CCCN=Cc1ccccc1O.OCC[N-]CCCN=Cc1ccccc1O.[Co+2]
inactive: [5] 96 % of control | [6] 100 % of control

CP(=O)(Cc1ccccc1)c1ccccc1 (stereo not given)
inactive: [7] 101 % of control | [8] 103 % of control | [9] 103 % of control

CCCC(P(c1ccccc1)c1ccccc1)P(=O)(c1ccccc1)c1ccccc1 (stereo not given)
inactive: [10] 94 % of control | [11] 94 % of control | [12] 94 % of control

CCCCOP(=O)(/C=C/c1cccs1)OCCCC
inactive: [1] 100 % of control | [2] 94 % of control

COc1cc(N=Cc2ccc([N+](=O)[O-])cc2)c2ncccc2c1
inactive: [13] 101 % of control | [14] 94 % of control | [15] 92 % of control

CC1(C)N=C(N)N=C(N)N1c1ccc(OCCCNC(=O)Nc2cccc(S(=O)(=O)F)c2)c(Cl)c1
inactive: dose: 50.0 mg/kg/injection, schedule: Q01DX009 (ip), vehicle: saline 114 % of control

O=C(Nc1ccc(Cl)cc1Cl)Sc1ccc(Cl)cc1
inactive: [16] 91 % of control | [17] 96 % of control | [18] 88 % of control

O=C(CCN1CCOCC1)c1ccccc1
inactive: [7] 94 % of control | [8] 89 % of control | [9] 92 % of control

Cc1cc(Cl)c(Cl)cc1NC(=O)/C=C\c1ccccc1
inactive: [16] 114 % of control | [3] 91 % of control | [17] 108 % of control | [4] 94 % of control | [18] 102 % of control | [19] 97 % of control

COCC1OC(OC(=O)c2ccccc2)C(OC(=O)c2ccccc2)C(OC(=O)c2ccccc2)C1OC (stereo not given)
inactive: dose: 12.5 mg/kg/injection, schedule: Q01DX009 (ip), vehicle: saline with Tween-80 97 % of control | dose: 25.0 mg/kg/injection, schedule: Q01DX009 (ip), vehicle: saline with Tween-80 95 % of control | [20] 93 % of control

[N-]=[N+]=C1C(=O)NC(=O)NC1C(=O)O (stereo not given)
inactive: dose: 75.0 mg/kg/injection, schedule: Q01DX009 (ip), vehicle: Klucel (hydroxypropylcellulose) (HPC) 103 % of control | dose: 100.0 mg/kg/injection, schedule: Q01DX001 (ip), vehicle: Klucel (hydroxypropylcellulose) (HPC) 96 % of control | dose: 150.0 mg/kg/injection, schedule: Q01DX009 (ip), vehicle: Klucel (hydroxypropylcellulose) (HPC) 119 % of control | dose: 200.0 mg/kg/injection, schedule: Q01DX001 (ip), vehicle: Klucel (hydroxypropylcellulose) (HPC) 100 % of control | dose: 300.0 mg/kg/injection, schedule: Q01DX009 (ip), vehicle: Klucel (hydroxypropylcellulose) (HPC) 107 % of control | dose: 400.0 mg/kg/injection, schedule: Q01DX001 (ip), vehicle: Klucel (hydroxypropylcellulose) (HPC) 86 % of control

CN1C2CCC1CC(=O)C2
inactive: [7] 103 % of control | [8] 102 % of control

O=S(=O)(c1ccc(N=Nc2ncc[nH]2)cc1)N(CCCl)CCCl
inactive: [20] 90 % of control | dose: 100.0 mg/kg/injection, schedule: Q01DX009 (ip), vehicle: saline with Tween-80 94 % of control | dose: 200.0 mg/kg/injection, schedule: Q01DX009 (ip), vehicle: saline with Tween-80 90 % of control

CC(C)(C)c1cc(C=C2C(=O)c3ccccc3C2=O)cc(C(C)(C)C)c1O
inactive: [10] 87 % of control | [11] 90 % of control | [12] 93 % of control

COc1cc(OC)cc(C(=O)NCCCl)c1
inactive: dose: 50.0 mg/kg/injection, schedule: Q01DX001 (ip), vehicle: carboxymethylcellulose (CMC) 101 % of control | [13] 110 % of control | [14] 107 % of control | [15] 107 % of control

CCCCNC(=O)Nc1cc(Cl)ccc1C
inactive: dose: 3.12 mg/kg/injection, schedule: Q01DX009 (ip), vehicle: Klucel (hydroxypropylcellulose) (HPC) 97 % of control | dose: 6.25 mg/kg/injection, schedule: Q01DX009 (ip), vehicle: Klucel (hydroxypropylcellulose) (HPC) 92 % of control | dose: 12.5 mg/kg/injection, schedule: Q01DX009 (ip), vehicle: Klucel (hydroxypropylcellulose) (HPC) 101 % of control and 90 % of control | dose: 25.0 mg/kg/injection, schedule: Q01DX009 (ip), vehicle: Klucel (hydroxypropylcellulose) (HPC) 89 % of control | [16] 94 % of control and 86 % of control | [3] 95 % of control | [4] 90 % of control | [19] 90 % of control

CCCCCc1nc2c(c(=O)n(C)c(=O)n2C)n1C
inactive: [5] 112 % of control | [6] 100 % of control | dose: 200.0 mg/kg/injection, schedule: Q01DX001 (ip), vehicle: saline 102 % of control | dose: 400.0 mg/kg/injection, schedule: Q01DX001 (ip), vehicle: saline 106 % of control
